The results in this text go back to patent EP1277754B1, “IMIDAZOPYRIDINE DERIVATIVES” (YAMANOUCHI PHARMACEUTICAL CO. LTD., priority 2000, dated 2001).

Molecules are shown by their SMILES.

A word on the IC50: it is the midpoint of a concentration-inhibition curve.

The subject of one assay is HCT116 cells. The assay can be described thus: Colon cancer cell growth inhibition (Alamar Blue). Format: cell-based. Particulars: incubation over 72 hours, result in words. As for the experimental part:
Test Example 2 Colon cancer cell growth inhibition
HCT116 cells from a colon cancer cell line were cultured in McCoy's 5A medium (GIBCO) supplemented with 10% fetal bovine serum. HCTI 16 cells were inoculated on a 96 well plate (5000 cells/well) followed by overnight incubation. The test compound diluted with the medium was added to the medium in a final concentration of 0.1 to 30µM (final DMSO concentration, 1%). After incubation for over 72 hours, Alamar Blue reagent was added to the medium. Two hours after the addition, a ratio of fluorescent intensity at an excitation wavelength of 530 nm to that at an emission wavelength of 590 nm was measured to determine the IC50.
A general note: Alamar Blue is a resazurin reagent that responds to reducing activity.
On to `Cc1ccc([N+](=O)[O-])cc1S(=O)(=O)n1ccc(-c2c(C)nc3ccc(Br)cn23)n1` [Compound 6, 3-(6-Bromo-2-methylimidazo[1,2-a]pyridin-3-yl)-1H-pyrazol-1-yl 2-methyl-5-nitrophenyl sulfone], for which the “cancer cell growth inhibition activity” value is recorded as “good cancer cell growth inhibition activity”.

The next assay relates to A375 cells. In words: Melanoma cell growth inhibition (Alamar Blue). Format: cell-based. Particulars: Homo sapiens, A-375, incubation over 46 hours. As for the experimental part: A375 cells from a melanoma cell line were cultured in DMEM medium (GIBCO) supplemented with 10% fetal bovine serum. A375 cells at 10,000 cells/100µl were added to a 96 well plate which contained 1 µl/well of the test compounds (final concentration of 0.001 ~ 30µM). After incubation for over 46 hours, Alamar Blue reagent was added to the medium (10µl/well). Two hours after the addition, a ratio of fluorescent intensity at an excitation wavelength of 530 nm to that at an emission wavelength of 590 nm was measured to determine the IC50 of the test compounds in the same manner as in the above examples.
As to `Cc1ccc([N+](=O)[O-])cc1S(=O)(=O)n1ccc(-c2cnc3ccc(Br)cn23)n1` [Compound 30, 3-(6-bromoimidazo[1,2-a]pyridin-3-yl)-1H-pyrazol-1-yl 2-methyl-5-nitrophenyl sulfone], the concentration for half-maximal inhibition (IC50) was less than 1 µM. The same measure, in the same setting: then `CN(N=Cc1cnc2ccc(Cl)cn12)S(=O)(=O)c1cc([N+](=O)[O-])ccc1N` [Compound 59, 2-amino-2'-[(6-chloroimidazo[1,2-a]pyridin-3-yl)methylidene]-1'-methyl-5-nitrobenzenesulfonohydrazide], with less than 1 µM; and `Cc1ccc([N+](=O)[O-])cc1S(=O)(=O)c1nc(-c2cnc3ccc(Cl)cn23)cs1` [Compound 65, 6-chloro-3-[2-(2-methyl-5-nitrobenzenesulfonyl)thiazol-4-yl]imidazo[1,2-a]pyridine], with less than 1 µM. The same measure, in the same setting: next, `Cc1ccc([N+](=O)[O-])cc1S(=O)(=O)N(C)N=Cc1cnc2ccc(C#N)cn12` [Compound 93, 3-{[(methyl)(2-methyl-5-nitrobenzenesulfonyl)hydrazono]methyl}imidazo[1,2-a]pyridine-6-carbonitrile]: less than 1 µM; `Cc1ccc(C#N)cc1S(=O)(=O)N(C)N=Cc1cnc2ccc(F)cn12` [Compound 95, 5-cyano-2'-[(6-fluoroimidazo[1,2-a]pyridin-3-yl)methylidene]-1',2-dimethylbenzenesulfonohydrazide]: less than 1 µM; `CN(N=Cc1cnc2ccc(Cl)cn12)S(=O)(=O)c1cc([N+](=O)[O-])ccc1-n1ccnc1` [Compound 112, 2'-[(6-chloroimidazo[1,2-a]pyridin-3-yl)methylidene]-2-(1H-imidazol-1-yl)-1'-methyl-5-nitrobenzenesulfonohydrazide]: less than 1 µM. The same measure, in the same setting: then `Cc1ccc(C#N)cc1S(=O)(=O)N(C)N=Cc1cnc2ccc(Br)cn12` [Compound 54, 3-({2-[(6-bromoimidazo[1,2-a]pyridin-3-yl)methylidene]-1-methylhydrazino}sulfonyl)-4-methylbenzonitrile], with less than 1 µM.

Molecule `Cc1ccc([N+](=O)[O-])cc1S(=O)(=O)N(C)N=Cc1cnc2ccc(F)cn12` [Compound 57, 2'-[(6-fluoroimidazo[1,2-a]pyridin-3-yl)methylidene]-1',2-dimethyl-5-nitrobenzenesulfonohydrazide] showed an IC50 of less than 1 µM. Still for that read-out and setting: then `Cc1ccc([N+](=O)[O-])cc1S(=O)(=O)N(C)N=Cc1cnc2ccc(Br)cn12` [Compound 43, 2'-[(6-bromoimidazo[1,2-a]pyridin-3-yl)methylidene]-1',2-dimethyl-5-nitrobenzenesulfonohydrazide], with less than 1 µM; and `Cc1ccc([N+](=O)[O-])cc1S(=O)(=O)N(CCN1CCOCC1)N=Cc1cnc2ccc(Br)cn12` [Compound 77, 6-bromo-3-{[(2-methyl-5-nitrobenzenesulfonyl)(2-morpholinoethyl)hydrazono]methyl}imidazo[1,2-a]pyridine], with less than 1 µM; and `Cc1ccc([N+](=O)[O-])cc1S(=O)(=O)N(C)N=Cc1cnc2ccc(Cl)cn12` [Compound 88, 6-chloro-3-{[(methyl)(2-methyl-5-nitrobenzenesulfonyl)hydrazono]methyl}imidazo[1,2-a]pyridine], with less than 1 µM. Still for that read-out and setting: then `CN(N=Cc1cnc2ccc(Cl)cn12)S(=O)(=O)c1cc([N+](=O)[O-])ccc1OCC(F)(F)F` [Compound 60, 2'-[(6-chloroimidazo[1,2-a]pyridin-3-yl)methylidene]-1'-methyl-5-nitro-2-(2,2,2-trifluoroethoxy)benzenesulfonohydrazide], with less than 1 µM; and `CN(C)c1ccc([N+](=O)[O-])cc1S(=O)(=O)N(C)N=Cc1cnc2ccc(Cl)cn12` [Compound 113, 2'-[(6-chloroimidazo[1,2-a]pyridin-3-yl)methylidene]-2-dimethylamino-1'-methyl-5-nitrobenzenesulfonohydrazide], with less than 1 µM. In the case of `CCc1ccc([N+](=O)[O-])cc1S(=O)(=O)N(C)N=Cc1cnc2ccc(Br)cn12` [Compound 53, 2'-[(6-bromoimidazo[1,2-a]pyridin-3-yl)methylidene]-2-ethyl-1'-methyl-5-nitrobenzenesulfonohydrazide], the IC50 is less than 1 µM.

For the molecule `Cc1ccc(C#N)cc1S(=O)(=O)N(C)N=Cc1cnc2ccc(C#N)cn12` [Compound 96, 5-cyano-2'-[(6-cyanoimidazo[1,2-a]pyridin-3-yl)methylidene]-1',2-dimethylbenzenesulfonohydrazide], the IC50 was less than 1 µM. As to `Cc1ccc([N+](=O)[O-])cc1S(=O)(=O)n1ccc(-c2c(C)nc3ccc(Br)cn23)n1` [Compound 6, 3-(6-Bromo-2-methylimidazo[1,2-a]pyridin-3-yl)-1H-pyrazol-1-yl 2-methyl-5-nitrophenyl sulfone], the IC50 is less than 1 µM.

The assay is the same for the next values; noted with them: incubation over 46 hours.
Take `Cc1ccc2ncc(C=NN(C)S(=O)(=O)c3cc([N+](=O)[O-])ccc3C)n2c1` [Compound 99, 1'2-dimethyl-2'-[(6-methylimidazo[1,2-a]pyridin-3-yl)methylidene]-5-nitrobenzenesulfonohydrazide]: the half-inhibitory concentration (IC50) is less than 1 µM.
